Among the data in patent publication US8697739B2, “Bicyclic acetyl-CoA carboxylase inhibitors and uses thereof” (Novartis AG, priority 2010, dated 2014) are IC50 values, retold here.

pIC50: −log10 of the molar value.

One may read the pIC50 as the negative decadic logarithm of the IC50, by convention in mol/L.

T1 sequence (O00763 144-2458): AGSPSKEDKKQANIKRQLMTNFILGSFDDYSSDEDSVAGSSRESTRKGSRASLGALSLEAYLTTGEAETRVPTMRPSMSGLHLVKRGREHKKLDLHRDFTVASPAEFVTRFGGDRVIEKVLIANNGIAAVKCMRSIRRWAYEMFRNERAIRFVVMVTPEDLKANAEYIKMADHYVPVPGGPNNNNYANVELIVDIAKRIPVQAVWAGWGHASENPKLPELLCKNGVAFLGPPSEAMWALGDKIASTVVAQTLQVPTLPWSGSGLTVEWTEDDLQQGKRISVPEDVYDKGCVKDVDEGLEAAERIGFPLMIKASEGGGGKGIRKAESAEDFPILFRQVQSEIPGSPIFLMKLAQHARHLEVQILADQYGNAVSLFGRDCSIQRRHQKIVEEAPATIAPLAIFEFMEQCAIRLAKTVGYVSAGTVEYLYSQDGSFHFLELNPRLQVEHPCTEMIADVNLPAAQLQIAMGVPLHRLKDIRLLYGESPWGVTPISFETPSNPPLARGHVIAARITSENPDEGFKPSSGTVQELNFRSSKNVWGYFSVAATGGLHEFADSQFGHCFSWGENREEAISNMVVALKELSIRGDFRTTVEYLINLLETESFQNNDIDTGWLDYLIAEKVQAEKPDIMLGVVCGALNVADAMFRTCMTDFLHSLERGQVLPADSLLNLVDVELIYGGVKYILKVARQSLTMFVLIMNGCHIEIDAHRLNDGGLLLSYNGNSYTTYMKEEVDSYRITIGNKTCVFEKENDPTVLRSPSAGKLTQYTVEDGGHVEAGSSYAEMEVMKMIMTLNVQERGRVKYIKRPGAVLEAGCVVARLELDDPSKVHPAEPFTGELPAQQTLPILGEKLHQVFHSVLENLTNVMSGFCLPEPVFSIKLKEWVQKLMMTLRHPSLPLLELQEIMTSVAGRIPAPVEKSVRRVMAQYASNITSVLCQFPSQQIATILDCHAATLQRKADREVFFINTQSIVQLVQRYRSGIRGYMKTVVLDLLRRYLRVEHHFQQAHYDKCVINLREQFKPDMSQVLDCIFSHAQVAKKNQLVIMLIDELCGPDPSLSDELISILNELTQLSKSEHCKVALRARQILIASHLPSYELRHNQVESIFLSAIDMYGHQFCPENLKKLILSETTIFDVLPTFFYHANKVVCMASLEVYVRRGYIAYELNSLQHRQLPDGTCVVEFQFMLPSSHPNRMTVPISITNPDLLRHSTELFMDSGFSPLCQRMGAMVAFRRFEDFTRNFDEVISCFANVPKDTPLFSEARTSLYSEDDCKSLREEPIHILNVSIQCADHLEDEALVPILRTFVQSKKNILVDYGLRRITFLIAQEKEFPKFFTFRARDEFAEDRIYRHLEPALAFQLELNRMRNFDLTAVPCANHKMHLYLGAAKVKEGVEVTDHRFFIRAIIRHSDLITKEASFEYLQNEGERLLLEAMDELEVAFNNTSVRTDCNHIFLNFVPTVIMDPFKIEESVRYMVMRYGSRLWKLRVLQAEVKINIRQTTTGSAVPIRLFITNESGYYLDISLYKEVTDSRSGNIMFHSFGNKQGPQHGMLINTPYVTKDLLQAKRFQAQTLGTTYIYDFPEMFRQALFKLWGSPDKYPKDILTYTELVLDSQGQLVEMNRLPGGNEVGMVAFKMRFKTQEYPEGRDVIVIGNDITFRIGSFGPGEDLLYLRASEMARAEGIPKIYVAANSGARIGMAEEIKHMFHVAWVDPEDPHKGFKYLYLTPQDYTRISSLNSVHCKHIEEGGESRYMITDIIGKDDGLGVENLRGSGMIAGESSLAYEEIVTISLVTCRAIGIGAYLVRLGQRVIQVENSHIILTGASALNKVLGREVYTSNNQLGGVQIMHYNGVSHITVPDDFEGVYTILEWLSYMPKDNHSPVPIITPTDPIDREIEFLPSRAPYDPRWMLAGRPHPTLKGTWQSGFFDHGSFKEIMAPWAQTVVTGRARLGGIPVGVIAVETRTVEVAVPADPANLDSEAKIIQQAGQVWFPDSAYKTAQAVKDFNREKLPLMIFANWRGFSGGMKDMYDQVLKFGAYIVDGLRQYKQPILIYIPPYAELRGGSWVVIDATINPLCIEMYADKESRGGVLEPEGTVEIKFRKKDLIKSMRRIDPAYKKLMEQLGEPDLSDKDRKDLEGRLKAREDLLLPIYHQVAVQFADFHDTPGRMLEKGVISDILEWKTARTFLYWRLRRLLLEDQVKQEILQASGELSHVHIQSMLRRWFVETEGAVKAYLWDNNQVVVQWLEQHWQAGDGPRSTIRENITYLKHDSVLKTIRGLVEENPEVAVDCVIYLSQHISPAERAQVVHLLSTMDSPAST

This assay addresses T1, human acetyl-CoA carboxylase 2 (ACC2) (Homo sapiens, UniProt O00763).
T1 construct: The cDNA encoding amino acids 144 to 2458 of human acetyl-CoA carboxylase 2; made in house; host or cells: Sf9 insect cells (baculovirus, pFastBac1)
The assay can be described thus: Acetyl-CoA carboxylase enzyme assay (malonyl-CoA formation by LC/MS/MS). In kind it is biochemical. The settings on record: recombinant human ACC2 (aa 144-2458); read-out: IC50 ACC2. The procedure, abridged:
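Malonyl-CoA formation was read by LC/MS/MS MRM against a [13C3]-malonyl-CoA internal standard, after acetic acid quench. The enzyme was baculovirus/Sf9-expressed human ACC2 residues 144–2458, given 15 minutes room-temperature compound preincubation in HEPES pH 7.5 buffer with MgCl2, citrate and DTT. Substrate solution held 50 μM acetyl-CoA, 120 μM ATP and 2 mM KHCO3.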
For `O=C(O)[C@@H]1CCCN(C(=O)[C@H]2CC[C@H](NS(=O)(=O)c3ccc4ccccc4c3)CC2)C1` [Example 163, (R)-1-((1r,4R)-4-(naphthalene-2-sulfonamido)cyclohexanecarbonyl)piperidine-3-carboxylic acid], the pIC50 is 5.07.

As for `C[C@@H](NC(=O)[C@H]1CC[C@H](NS(=O)(=O)c2ccc3[nH]c(-c4ccccc4)nc3c2)CC1)C1CCCCC1` [Example 121, (1r,4R)-N-((R)-1-cyclohexylethyl)-4-(2-phenyl-1H-benzo[d]imidazole-5-sulfonamido)cyclohexanecarboxamide], the pIC50 is 7.77.

Regarding `Cn1c(-c2ccccc2)cc2ccc(S(=O)(=O)N[C@H]3CC[C@H](C(=O)N[C@H](CO)c4ccccc4)CC3)cc21` [Example 353, (1r,4S)-N-((S)-2-hydroxy-1-phenylethyl)-4-(1-methyl-2-phenyl-1H-indole-6-sulfonamido)cyclohexanecarboxamide], the pIC50 is > 8.00.

Consider `CC(C)(C)c1nnc(-c2ccc(NS(=O)(=O)c3ccc4[nH]c(-c5ccc(N6CCOCC6)cc5)nc4c3)cc2)o1` [Example 593, N-(4-(5-tert-butyl-1,3,4-oxadiazol-2-yl)phenyl)-2-(4-morpholinophenyl)-1H-benzo[d]imidazole-5-sulfonamide], for which the pIC50 was 6.00.

As for `O=C1NCCCC[C@@H]1NC(=O)[C@H]1CC[C@H](NS(=O)(=O)c2ccc3[nH]c(-c4ccccc4)nc3c2)CC1` [Example 612, (1r,4S)-N-((S)-2-oxoazepan-3-yl)-4-(2-phenyl-1H-benzo[d]imidazole-5-sulfonamido)cyclohexanecarboxamide], the pIC50 was 7.80.

With `Cc1cc(-c2ccc3cc(S(=O)(=O)N[C@H]4CC[C@H](C(=O)N5CCOC[C@@H]5C(C)C)CC4)ccc3n2)cc(C)n1` [Example 261, 2-(2,6-dimethylpyridin-4-yl)-N-((1S,4r)-4-((S)-3-isopropylmorpholine-4-carbonyl)cyclohexyl)quinoline-6-sulfonamide], the pIC50 is 6.34.

In the case of `Cn1c(C2CC2)cc2ccc(S(=O)(=O)N[C@H]3CC[C@H](C(=O)N[C@@H](c4ccccc4)C(C)(C)C(=O)O)CC3)cc21` [Example 409, (S)-3-((1r,4S)-4-(2-cyclopropyl-1-methyl-1H-indole-6-sulfonamido)cyclohexanecarboxamido)-2,2-dimethyl-3-phenylpropanoic acid], the pIC50 was > 8.00.

Regarding `CC(NC(=O)[C@H]1CC[C@H](NS(=O)(=O)c2ccc3cc(Cl)ccc3c2)CC1)c1cccnc1` (some centres unmarked) [Example 681, (1r,4r)-4-(6-chloronaphthalene-2-sulfonamido)-N-(1-(pyridin-3-yl)ethyl)cyclohexanecarboxamide], the negative-log IC50 (pIC50) is 6.85.

Turning to `COC[C@@H](NC(=O)[C@H]1CC[C@H](NS(=O)(=O)c2ccc3c(ccn3C)c2)CC1)c1ccccc1` [Example 674, (1r,4S)-N-((S)-2-methoxy-1-phenylethyl)-4-(1-methyl-1H-indole-5-sulfonamido)cyclohexanecarboxamide], the pIC50 was 6.11.

In the case of `C[C@@H](NC(=O)[C@H]1CC[C@H](NS(=O)(=O)c2ccc3c(c2)N(CC(=O)O)CCC3)CC1)c1ccc(F)cc1` [Example 166, 2-(7-(N-((1R,4r)-4-((R)-1-(4-fluorophenyl)ethylcarbamoyl)cyclohexyl)sulfamoyl)-3,4-dihydroquinolin-1(2H)-yl)acetic acid], the pIC50 is 6.04.

`C[C@@H]1CN(C(=O)[C@H]2CC[C@H](NS(=O)(=O)c3ccc4[nH]c(-c5ccccc5)nc4c3)CC2)C[C@H](C)O1` [Example 664, N-((1R,4r)-4-((2S,6R)-2,6-dimethylmorpholine-4-carbonyl)cyclohexyl)-2-phenyl-1H-benzo[d]imidazole-5-sulfonamide]: the pIC50 was 7.27.

Turning to `C[C@@H](NC(=O)[C@H]1CC[C@H](NS(=O)(=O)c2ccc3c(c2)c(C#N)cn3C)CC1)c1ccc(F)cc1` [Example 88, (1r,4R)-4-(3-cyano-1-methyl-1H-indole-5-sulfonamido)-N-((R)-1-(4-fluorophenyl)ethyl)cyclohexanecarboxamide], the pIC50 is 7.30.

In the case of `COCc1nnc(-c2ccc(NS(=O)(=O)c3ccc4nc(-c5ccccc5)[nH]c4c3)cc2)o1` [Example 520, N-(4-(5-(methoxymethyl)-1,3,4-oxadiazol-2-yl)phenyl)-2-phenyl-1H-benzo[d]imidazole-6-sulfonamide], the pIC50 is 5.03.

In the case of `C[C@@H](NC(=O)[C@H]1CC[C@H](NS(=O)(=O)c2ccc3[nH]c([C@@H]4CCCN4)nc3c2)CC1)c1ccc(F)cc1` [Example 3, (1r,4R)—N—((R)-1-(4-fluorophenyl)ethyl)-4-(2-((S)-pyrrolidin-2-yl)-1H-benzo[d]imidazole-5-sulfonamido)cyclohexanecarboxamide], the pIC50 was 6.29.

Regarding `O=C(Nc1cccc2ccccc12)[C@H]1CC[C@H](NS(=O)(=O)c2ccc3[nH]c(-c4ccccc4)nc3c2)CC1` [Example 645, (1r,4r)-N-(naphthalen-1-yl)-4-(2-phenyl-1H-benzo[d]imidazole-5-sulfonamido)cyclohexanecarboxamide], the pIC50 was 5.97.

As for `CC(C)OC(=O)c1ccc(NS(=O)(=O)c2ccc3nc(-c4cccc(F)c4)[nH]c3c2)cc1` [Example 496, isopropyl 4-(2-(3-fluorophenyl)-1H-benzo[d]imidazole-6-sulfonamido)benzoate], the pIC50 is 5.63.

As to `COc1ccc(Nc2nc3cc(S(=O)(=O)Nc4ccc(-c5nnc(C(C)C)o5)cc4)ccc3[nH]2)cc1` [Example 602, N-(4-(5-isopropyl-1,3,4-oxadiazol-2-yl)phenyl)-2-(4-methoxyphenylamino)-1H-benzo[d]imidazole-5-sulfonamide], the pIC50 was 6.27.

`COCc1ccc(-c2cc3ccc(S(=O)(=O)N[C@H]4CC[C@H](C(=O)N5CCOC[C@@H]5C)CC4)cc3n2C)cc1` [Example 437, 2-(4-(methoxymethyl)phenyl)-1-methyl-N-((1S,4r)-4-((S)-3-methylmorpholine-4-carbonyl)cyclohexyl)-1H-indole-6-sulfonamide]: the pIC50 was 7.40.

For `Cn1c(-c2ccccc2)c(Cl)c2ccc(S(=O)(=O)N[C@H]3CC[C@H](C(=O)N4CCN[C@H](C(F)(F)F)C4)CC3)cc21` [Example 21, 3-chloro-1-methyl-2-phenyl-N-((1S,4r)-4-((S)-3-(trifluoromethyl)piperazine-1-carbonyl)cyclohexyl)-1H-indole-6-sulfonamide], the pIC50 is > 8.00.

Turning to `C[C@@H]1COCCN1C(=O)[C@H]1CC[C@H](NS(=O)(=O)c2ccc3c(C#N)c(C4CC4)n(C)c3c2)CC1` [Example 413, 3-cyano-2-cyclopropyl-1-methyl-N-((1R,4r)-4-((R)-3-methylmorpholine-4-carbonyl)cyclohexyl)-1H-indole-6-sulfonamide], the pIC50 is 7.30.

As to `COc1ccc(-c2cc3ccc(S(=O)(=O)N[C@H]4CC[C@H](C(=O)N[C@@H](CO)C5CC5)CC4)cc3n2C)cc1` [Example 445, (1r,4R)-N-((R)-1-cyclopropyl-2-hydroxyethyl)-4-(2-(4-methoxyphenyl)-1-methyl-1H-indole-6-sulfonamido)cyclohexanecarboxamide], the pIC50 is 7.82.

As for `CC1CC(C)CN(C(=O)[C@H]2CC[C@H](NS(=O)(=O)c3ccc4[nH]c(-c5ccccc5)nc4c3)CC2)C1` (some centres unmarked) [Example 626, N-((1r,4r)-4-(3,5-dimethylpiperidine-1-carbonyl)cyclohexyl)-2-phenyl-1H-benzo[d]imidazole-5-sulfonamide], the pIC50 was 7.11.

In the case of `CCOc1ccc2cc(S(=O)(=O)N[C@H]3CC[C@H](C(=O)N[C@H](COP(=O)(O)O)c4ccccc4)CC3)ccc2n1` [Example 269, (S)-2-((1r,4S)-4-(2-ethoxyquinoline-6-sulfonamido)cyclohexanecarboxamido)-2-phenylethyl dihydrogen phosphate], the pIC50 is 4.60.

On to `O=C(NCC1CCCCC1)[C@H]1CC[C@H](NS(=O)(=O)c2ccc3[nH]c(-c4ccccc4)nc3c2)CC1` [Example 639, (1r,4r)-N-(cyclohexylmethyl)-4-(2-phenyl-1H-benzo[d]imidazole-5-sulfonamido)cyclohexanecarboxamide], for which the pIC50 was 6.45.

On to `COCCCNC(=O)[C@H]1CC[C@H](NS(=O)(=O)c2ccc3[nH]c(-c4ccccc4)nc3c2)CC1` [Example 642, (1r,4r)-N-(3-methoxypropyl)-4-(2-phenyl-1H-benzo[d]imidazole-5-sulfonamido)cyclohexanecarboxamide], for which the pIC50 was 5.87.

For `Cc1nc2cc(S(=O)(=O)N[C@H]3CC[C@H](C(=O)N[C@H](C)c4ccc(F)cc4)CC3)ccc2[nH]1` [Example 663, (1r,4R)-N-((R)-1-(4-fluorophenyl)ethyl)-4-(2-methyl-1H-benzo[d]imidazole-5-sulfonamido)cyclohexanecarboxamide], the pIC50 is 6.60.

As for `Cc1ccccc1-c1nc2cc(S(=O)(=O)N[C@H]3CC[C@H](C(=O)N[C@H](C)c4ccc(F)cc4)CC3)cnc2o1` [Example 76, (1r,4R)-N-((R)-1-(4-fluorophenyl)ethyl)-4-(2-o-tolyloxazolo[5,4-b]pyridine-6-sulfonamido)cyclohexanecarboxamide], the pIC50 was 6.23.

Take `Cn1c(-c2ccc(CCC(=O)O)cc2)cc2ccc(S(=O)(=O)N[C@H]3CC[C@H](C(=O)N4CCC[C@@H]4c4ccc(F)cc4)CC3)cc21` [Example 392, 3-(4-(6-(N-((1R,4r)-4-((R)-2-(4-fluorophenyl)pyrrolidine-1-carbonyl)cyclohexyl)sulfamoyl)-1-methyl-1H-indol-2-yl)phenyl)propanoic acid]: the pIC50 was 6.94.

For `COCCOc1ccc(-c2cc3ccc(S(=O)(=O)N[C@H]4CC[C@H](C(=O)N5CCC[C@@H]5C(C)(C)O)CC4)cc3n2C)cc1` [Example 451, N-((1R,4r)-4-((R)-2-(2-hydroxypropan-2-yl)pyrrolidine-1-carbonyl)cyclohexyl)-2-(4-(2-methoxyethoxy)phenyl)-1-methyl-1H-indole-6-sulfonamide], the pIC50 was 7.10.
